Assay results taken from patent US11040962B2, “Pesticidally active pyrazole derivatives” (SYNGENTA PARTICIPATIONS AG, priority 2017, dated 2021).

What was measured:
Assay type in all cases: in vivo
[1] = test system: Euschistus heros; assay: Euschistus heros (neotropical brown stink bug) soybean leaf spray test; details: 120 h, application rate 200 ppm, N2 nymphs, 5 days after infestation, vs untreated, read-out: effect in at least one of the two categories (mortality or growth inhibition)
Procedure: Euschistus heros (Neotropical Brown Stink Bug)
Soybean leaves on agar in 24-well microtiter plates were sprayed with aqueous test solutions prepared from 10′000 ppm DMSO stock solutions. After drying the leaves were infested with N2 nymphs. The samples were assessed for mortality and growth inhibition in comparison to untreated samples 5 days after infestation. The following compounds gave an effect of at least 80% in at least one of the two categories (mortality or growth inhibition) at an application rate of 200 ppm: 1, 2, 3, 7, 8, 9, 12, 13, 14, 15, 17, 18, 21, 25, 26, 27, 28 and 29.

[2] = test system: Plutella xylostella; assay: Plutella xylostella (diamond back moth) artificial diet test; details: 120 h, application rate 200 ppm, L2 larvae, 5 days after infestation, vs untreated, read-out: effect in at least one of the two categories (mortality or growth inhibition)
Procedure: Plutella xylostella (Diamond Back Moth):
24-well microtiter plates with artificial diet were treated with aqueous test solutions prepared from 10′000 ppm DMSO stock solutions by pipetting. After drying, the plates were infested with L2 larvae (10 to 15 per well). The samples were assessed for mortality and growth inhibition in comparison to untreated samples 5 days after infestation. The following compounds gave an effect of at least 80% in at least one of the two categories (mortality or growth inhibition) at an application rate of 200 ppm: 1, 2, 3, 4, 7, 8, 9, 10, 11, 12, 13, 14, 15, 16, 17, 18, 19, 20, 21, 22, 23, 24, 26, 27, 28 and 29.

[3] = test system: Spodoptera littoralis; assay: Spodoptera littoralis (Egyptian cotton leaf worm) cotton leaf disc spray test; details: foliar, 72 h, application rate 200 ppm, L1 larvae, 3 days after infestation, vs untreated, read-out: control (at least one of mortality, anti-feedant effect, growth inhibition)
Procedure: Spodoptera littoralis (Egyptian Cotton Leaf Worm)
Cotton leaf discs were placed on agar in 24-well microtiter plates and sprayed with aqueous test solutions prepared from 10′000 ppm DMSO stock solutions. After drying the leaf discs were infested with five L1 larvae. The samples were assessed for mortality, anti-feedant effect, and growth inhibition in comparison to untreated samples 3 days after infestation. Control of Spodoptera littoralis by a test sample is when at least one of mortality, anti-feedant effect, and growth inhibition is higher than the untreated sample.

[4] = test system: Diabrotica balteata; assay: Diabrotica balteata (corn root worm) maize sprout spray test; details: 96 h, application rate 200 ppm, L2 larvae, 4 days after infestation, vs untreated, read-out: effect in at least one of the two categories (mortality or growth inhibition)
Procedure: Diabrotica balteata, (Corn Root Worm)
Maize sprouts, placed on an agar layer in 24-well microtiter plates were treated with aqueous test solutions prepared from 10′000 ppm DMSO stock solutions by spraying. After drying, the plates were infested with L2 larvae (6 to 10 per well). The samples were assessed for mortality and growth inhibition in comparison to untreated samples 4 days after infestation. The following compounds gave an effect of at least 80% in at least one of the two categories (mortality or growth inhibition) at an application rate of 200 ppm: 1, 2, 3, 4, 7, 8, 9, 11, 12, 13, 14, 15, 16, 17, 18, 19, 20, 21, 27, 28 and 29.

[5] = test system: Thrips tabaci; assay: Thrips tabaci (onion thrips) sunflower leaf disc spray test; details: foliar, 144 h, application rate 200 ppm, population of mixed ages, 6 days after infestation
Procedure: Thrips tabaci (Onion Thrips):
(§1) Sunflower leaf discs were placed on agar in 24-well microtiter plates and sprayed with aqueous test solutions prepared from 10′000 ppm DMSO stock solutions. After drying the leaf discs were infested with a Thrips population of mixed ages. The samples were assessed for mortality 6 days after infestation.

[6] = test system: Tetranychus urticae; assay: Tetranychus urticae (two-spotted spider mite) bean leaf disc spray test; details: foliar, 192 h, application rate 200 ppm, 8 days after infestation, read-out: mortality on mixed population (mobile stages)
Procedure: Tetranychus urticae (Two-Spotted Spider Mite):
as §1, with “Bean” for “Sunflower”, “discs” for “discs were placed”, “were” for “and”, “mite” for “Thrips”, “on mixed population (mobile stages) 8” for “6”

CCN(C(=O)c1cc(-c2cc(-c3c(C(F)(F)F)c(C(F)(F)C(F)(F)F)nn3C)no2)sc1Cl)C1CC1 [Compound 21, 2-chloro-N-cyclopropyl-N-ethyl-5-[3-[2-methyl-5-(1,1,2,2,2-pentafluoroethyl)-4-(trifluoromethyl)pyrazol-3-yl]isoxazol-5-yl]thiophene-3-carboxamide]
≥ 80%: percent effect (mortality or growth inhibition) at 200 ppm [1] | percent effect (mortality or growth inhibition) at 200 ppm [2] | percent control (mortality, anti-feedant effect or growth inhibition) at 200 ppm [3] | percent effect (mortality or growth inhibition) at 200 ppm [4]

CCN(C(=O)c1cc(-c2cc(-c3c(C(F)(F)F)c(C(F)(F)C(F)(F)F)nn3C)no2)sc1C#N)C1(C#N)CC1 [Compound 18, 2-cyano-N-(1-cyanocyclopropyl)-N-ethyl-5-[3-[2-methyl-5-(1,1,2,2,2-pentafluoroethyl)-4-(trifluoromethyl)pyrazol-3-yl]isoxazol-5-yl]thiophene-3-carboxamide]
≥ 80%: mortality at 200 ppm [5] | percent effect (mortality or growth inhibition) at 200 ppm [1] | percent effect (mortality or growth inhibition) at 200 ppm [2] | percent control (mortality, anti-feedant effect or growth inhibition) at 200 ppm [3] | percent effect (mortality or growth inhibition) at 200 ppm [4]

CN(C(=O)c1cc(-c2cn(-c3c(C(F)(F)F)c(C(F)(F)C(F)(F)F)nn3C)nn2)sc1C#N)C1CC1 [Compound 2, 2-cyano-N-cyclopropyl-N-methyl-5-[1-[2-methyl-5-(1,1,2,2,2-pentafluoroethyl)-4-(trifluoromethyl)pyrazol-3-yl]triazol-4-yl]thiophene-3-carboxamide]
≥ 80%: mortality at 200 ppm [5] | percent effect (mortality or growth inhibition) at 200 ppm [1] | mortality at 200 ppm [6] | percent effect (mortality or growth inhibition) at 200 ppm [2] | percent control (mortality, anti-feedant effect or growth inhibition) at 200 ppm [3] | percent effect (mortality or growth inhibition) at 200 ppm [4]

CCN(C(=O)c1cc(-c2cn(-c3c(C(F)(F)F)c(C(F)(F)C(F)(F)F)nn3C)nn2)sc1Cl)C1(C#N)CC1 [Compound 12, 2-chloro-N-(1-cyanocyclopropyl)-N-ethyl-5-[1-[2-methyl-5-(1,1,2,2,2-pentafluoroethyl)-4-(trifluoromethyl)pyrazol-3-yl]triazol-4-yl]thiophene-3-carboxamide]
≥ 80%: mortality at 200 ppm [5] | percent effect (mortality or growth inhibition) at 200 ppm [1] | percent effect (mortality or growth inhibition) at 200 ppm [2] | percent control (mortality, anti-feedant effect or growth inhibition) at 200 ppm [3] | percent effect (mortality or growth inhibition) at 200 ppm [4]

CCN(C(=O)c1cc(-c2cc(-c3c(C(F)(F)F)c(C(F)(F)C(F)(F)F)nn3C)no2)sc1Cl)C1(C#N)CC1 [Compound 24]
≥ 80%: mortality at 200 ppm [5] | percent effect (mortality or growth inhibition) at 200 ppm [2] | percent control (mortality, anti-feedant effect or growth inhibition) at 200 ppm [3]

Cn1nc(C(F)(F)C(F)(F)F)c(C(F)(F)F)c1-c1cc(-c2cc(C(=O)NC3CC3)c(Cl)s2)on1 [Compound 19, 2-chloro-N-cyclopropyl-5-[3-[2-methyl-5-(1,1,2,2,2-pentafluoroethyl)-4-(trifluoromethyl)pyrazol-3-yl]isoxazol-5-yl]thiophene-3-carboxamide]
≥ 80%: percent effect (mortality or growth inhibition) at 200 ppm [2] | percent control (mortality, anti-feedant effect or growth inhibition) at 200 ppm [3] | percent effect (mortality or growth inhibition) at 200 ppm [4]

Cn1nc(C(F)(F)C(F)(F)F)c(C(F)(F)F)c1-n1cc(-c2cc(C(=O)NC3(C#N)CC3)c(Cl)s2)nn1 [Compound 10, 2-chloro-N-(1-cyanocyclopropyl)-5-[1-[2-methyl-5-(1,1,2,2,2-pentafluoroethyl)-4-(trifluoromethyl)pyrazol-3-yl]triazol-4-yl]thiophene-3-carboxamide]
≥ 80%: mortality at 200 ppm [5] | percent effect (mortality or growth inhibition) at 200 ppm [2] | percent control (mortality, anti-feedant effect or growth inhibition) at 200 ppm [3]

CN(C(=O)c1cc(-c2cc(-c3c(C(F)(F)F)c(C(F)(F)C(F)(F)F)nn3C)no2)sc1Cl)C1CC1 [Compound 20, 2-chloro-N-cyclopropyl-N-methyl-5-[3-[2-methyl-5-(1,1,2,2,2-pentafluoroethyl)-4-(trifluoromethyl)pyrazol-3-yl]isoxazol-5-yl]thiophene-3-carboxamide]
≥ 80%: mortality at 200 ppm [5] | percent effect (mortality or growth inhibition) at 200 ppm [2] | percent control (mortality, anti-feedant effect or growth inhibition) at 200 ppm [3] | percent effect (mortality or growth inhibition) at 200 ppm [4]

CN(C(=O)c1cc(-c2cn(-c3c(C(F)(F)F)c(C(F)(F)C(F)(F)F)nn3C)nn2)sc1Cl)C1(C#N)CC1 [Compound 11, 2-chloro-N-(1-cyanocyclopropyl)-N-methyl-5-[1-[2-methyl-5-(1,1,2,2,2-pentafluoroethyl)-4-(trifluoromethyl)pyrazol-3-yl]triazol-4-yl]thiophene-3-carboxamide]
≥ 80%: mortality at 200 ppm [5] | percent effect (mortality or growth inhibition) at 200 ppm [2] | percent control (mortality, anti-feedant effect or growth inhibition) at 200 ppm [3] | percent effect (mortality or growth inhibition) at 200 ppm [4]

Cn1nc(C(F)(F)C(F)(F)F)c(C(F)(F)F)c1-c1cc(-c2cc(C(=O)NC3CC3)c(C#N)s2)cs1 [Compound 25, 2-cyano-N-cyclopropyl-5-[5-[2-methyl-5-(1,1,2,2,2-pentafluoroethyl)-4-(trifluoromethyl)pyrazol-3-yl]-3-thienyl]thiophene-3-carboxamide]
≥ 80%: percent effect (mortality or growth inhibition) at 200 ppm [1] | mortality at 200 ppm [6]

Cn1nc(C(F)(F)C(F)(F)F)c(C(F)(F)F)c1-n1cc(-c2cc(C(=O)NC3(C#N)CC3)c(C#N)s2)nn1 [Compound 4, 2-cyano-N-(1-cyanocyclopropyl)-5-[1-[2-methyl-5-(1,1,2,2,2-pentafluoroethyl)-4-(trifluoromethyl)pyrazol-3-yl]triazol-4-yl]thiophene-3-carboxamide]
≥ 80%: mortality at 200 ppm [5] | mortality at 200 ppm [6] | percent effect (mortality or growth inhibition) at 200 ppm [2] | percent control (mortality, anti-feedant effect or growth inhibition) at 200 ppm [3] | percent effect (mortality or growth inhibition) at 200 ppm [4]

CN(C(=O)c1cc(-c2cc(-c3c(C(F)(F)F)c(C(F)(F)C(F)(F)F)nn3C)no2)sc1Cl)C1(C#N)CC1 [Compound 23, 2-chloro-N-(1-cyanocyclopropyl)-N-methyl-5-[3-[2-methyl-5-(1,1,2,2,2-pentafluoroethyl)-4-(trifluoromethyl)pyrazol-3-yl]isoxazol-5-yl]thiophene-3-carboxamide]
≥ 80%: mortality at 200 ppm [5] | percent effect (mortality or growth inhibition) at 200 ppm [2] | percent control (mortality, anti-feedant effect or growth inhibition) at 200 ppm [3]

Cn1nc(C(F)(F)C(F)(F)F)c(C(F)(F)F)c1-c1cc(-c2cc(C(=O)NC3(C#N)CC3)c(C#N)s2)on1 [Compound 16, 2-cyano-N-(1-cyanocyclopropyl)-5-[3-[2-methyl-5-(1,1,2,2,2-pentafluoroethyl)-4-(trifluoromethyl)pyrazol-3-yl]isoxazol-5-yl]thiophene-3-carboxamide]
≥ 80%: mortality at 200 ppm [5] | mortality at 200 ppm [6] | percent effect (mortality or growth inhibition) at 200 ppm [2] | percent control (mortality, anti-feedant effect or growth inhibition) at 200 ppm [3] | percent effect (mortality or growth inhibition) at 200 ppm [4]

Cn1nc(C(F)(F)C(F)(F)F)c(C(F)(F)F)c1-c1cc(-c2cc(C(=O)NC3(C#N)CC3)c(Cl)s2)on1 [Compound 22, 2-chloro-N-(1-cyanocyclopropyl)-5-[3-[2-methyl-5-(1,1,2,2,2-pentafluoroethyl)-4-(trifluoromethyl)pyrazol-3-yl]isoxazol-5-yl]thiophene-3-carboxamide]
≥ 80%: percent effect (mortality or growth inhibition) at 200 ppm [2]
